# Where two headings read alike, the source gives them in different places.
# Key:
# MDA/LCC6^MDR1 = assay: Reversal of MDR in P-gp-expressing cell line; format: cell-based, human; conditions: for EC50: Homo sapiens, MDA/LCC6^MDR1 breast
# Protocol: (§1) Cell proliferation IC50s and MDR reversal EC50s were determined from 3-day dose-response curves carried out in triplicate in 96-well plates essentially as described by Monks et al. (J. Natl. Cancer Inst., 83:757-66, 1991). Cells were plated in standard growth medium at 2.5 or 5.0×10^4 per well (CCRF-CEM and CEM/VLB1000 respectively) or 5×10^3 per well (all other cell lines) in a final volume of 100 μl. After a 2 h incubation for non-adherent cells and overnight incubation for adherent cells, the initial cell density was determined by fluorescence readout of Alamar Blue metabolism. The compound of Formula 2, cytotoxic agents, or compound vehicles were added to duplicate plates and the incubation was continued for an additional 72 h. Final cell density was determined with Alamar Blue. In some experiments, a standard endpoint assay was used without analysis of initial cell density with Alamar Blue. Similar results were obtained with the two assays. EC50s were derived by nonlinear regression analysis assuming a sigmoidal dose-response using GraphPad Prism Software (San Diego, Calif.). Proliferation assays capable of measuring both cytostatic and cytotoxic responses were carried out as described herein with 15 non-transformed and transformed cell lines, including primary fibroblasts, non-transformed smooth muscle, leukemia, breast, colon, ovarian and uterine carcinoma cells (±P-gp expression). Although the compound of Formula 2 reversed P-gp-mediated MDR in the low nanomolar concentration range, the compound was non-cytotoxic by itself at doses up to 100 μM in all cell lines. […] IC50s for non-specific cytotoxicity were similar in matched cell lines plus and minus P-gp expression. […] If it were, some consistent degree of resistance would be expected in P-gp expressing cells.
# HCT-15 = assay: Reversal of MDR in P-gp-expressing cell line; format: cell-based; conditions: Homo sapiens; HCT-15 colorectal carcinoma; read-out: Formula 2 compound EC50, reversal of Paclitaxel resistance
# Protocol: as §1
# MES-SA/DX5 = assay: Reversal of MDR in P-gp-expressing cell line; format: cell-based; conditions: Homo sapiens, MES-SA/DX5 uterine, ± SD
# Protocol: as §1
# CEM/VLB1000 = assay: Reversal of MDR in P-gp-expressing cell line; format: cell-based; conditions: Homo sapiens, CEM/VLB1000 lymphoma, ± SD
# Protocol: as §1
# SK/VLB1000 [1] = assay: Reversal of MDR in P-gp-expressing cell line; format: cell-based; conditions: Homo sapiens, SK/VLB1000 ovarian
# Protocol: as §1
# MCF-7/ADR [2] = assay: Reversal of MDR in P-gp-expressing cell line; format: cell-based; conditions: Homo sapiens, NCI/ADR-RES, MCF-7/ADR breast, ± SD
# Protocol: as §1
# CYP2C8 = CYP2C8 (Homo sapiens, UniProt P10632); assay: Metabolism by P450 CYP2C8; format: in vitro ADME
# Source text: (§2) Two enzymes primarily responsible for metabolism of paclitaxel are P450 CYP3A4 and CYP2C8. Some P-gp inhibitors are also metabolized by P450 CYP 3A4, leading to inhibition of paclitaxel metabolism. This may contribute to PK interactions with paclitaxel.
# [3] = PK interaction study, i.v. plasma paclitaxel levels; format: in vivo, SCID/RAG2 mice; conditions: three oral doses of 30 mg/kg before i.v. 16 mg/kg paclitaxel, FIG. 5
# Protocol: At the indicated times after paclitaxel administration, 3 mice per time point were anesthetized with CO2 and blood was removed by cardiac puncture into Microtainer tubes containing EDTA. Plasma samples generated by centrifugation were extracted with acetonitrile and the analysis for paclitaxel content was carried out by HPLC using a Waters 600E multisolvent delivery system, 717 plus autosampler and 996 photodiode array detector. Baccatin III (0.8 nmoles/200 μl plasma) was used as the internal standard (IS) and added to plasma samples during extraction with acetonitrile. Standard curve samples as well as quality control samples were also prepared from spiked control plasma in order to verify the accuracy of the HPLC analysis. […] Waters, Milford, Mass.) with double distilled water (A), and acetonitrile (B), using the following gradient profile: t=0 min, 10% B; t=5 min, 10% B; t=30 min, 65% B; t=40 min, 65% B; t=45 min, 10% B; t=50 min, 10% B. The gradient was formed using a high pressure mixer and the flow rate was 1.0 ml min^−1. A Waters 996 Photo Diode Array Detector was used to scan at multiple wavelengths and chromatograms were processed for traces obtained at 230 nm.
# [4] = test system: 15 non-transformed and transformed cell lines; assay: Proliferation assays, 15 non-transformed and transformed cell lines (panel statements); format: cell-based, human; conditions: for IC50: Homo sapiens, 15 cell lines
# Protocol: as §1
# CCD-986SK = assay: Cell proliferation assay; format: cell-based; conditions: Homo sapiens; Primary fibroblast CCD-986SK; read-out: Formula 2 compound IC50 (inhibition of growth)
# Protocol: as §1
# SW480 = assay: Cell proliferation assay; format: cell-based; conditions: Homo sapiens; Colorectal carcinoma SW480, P-gp Pos; read-out: Formula 2 compound IC50 (inhibition of growth)
# Protocol: as §1
# SK/VLB1000 [5] = assay: Cell proliferation assay; format: cell-based; conditions: Homo sapiens; Ovarian carcinoma SK/VLB1000, P-gp Pos; read-out: Formula 2 compound IC50 (inhibition of growth)
# Protocol: as §1
# SKOV3 = assay: Cell proliferation assay; format: cell-based; conditions: Homo sapiens, SK-OV-3; Ovarian carcinoma SKOV3, P-gp Neg; read-out: Formula 2 compound IC50 (inhibition of growth)
# Protocol: as §1
# CEM = assay: Cell proliferation assay; format: cell-based; conditions: Homo sapiens, CCRF-CEM; Lymphoma CEM, P-gp Neg; read-out: Formula 2 compound IC50 (inhibition of growth)
# Protocol: as §1
# MCF-7/ADR [6] = assay: Cell proliferation assay; format: cell-based; conditions: Homo sapiens, NCI/ADR-RES; Breast carcinoma MCF-7/ADR, P-gp Pos; read-out: Formula 2 compound IC50 (inhibition of growth)
# Protocol: as §1
# P450 CYP3A4 = P450 CYP3A4 (Homo sapiens, UniProt P08684); assay: Metabolism by P450 CYP3A4; format: in vitro ADME
# Source text: as §2
# [7] = read-out: Formula 2 compound EC50, reversal of Doxorubicin resistance
# [8] = read-out: Formula 2 compound EC50, reversal of Paclitaxel resistance
# [9] = read-out: Formula 2 compound EC50, reversal of Vinblastine resistance
# Chain of P450 CYP3A4 (P08684 whole entry): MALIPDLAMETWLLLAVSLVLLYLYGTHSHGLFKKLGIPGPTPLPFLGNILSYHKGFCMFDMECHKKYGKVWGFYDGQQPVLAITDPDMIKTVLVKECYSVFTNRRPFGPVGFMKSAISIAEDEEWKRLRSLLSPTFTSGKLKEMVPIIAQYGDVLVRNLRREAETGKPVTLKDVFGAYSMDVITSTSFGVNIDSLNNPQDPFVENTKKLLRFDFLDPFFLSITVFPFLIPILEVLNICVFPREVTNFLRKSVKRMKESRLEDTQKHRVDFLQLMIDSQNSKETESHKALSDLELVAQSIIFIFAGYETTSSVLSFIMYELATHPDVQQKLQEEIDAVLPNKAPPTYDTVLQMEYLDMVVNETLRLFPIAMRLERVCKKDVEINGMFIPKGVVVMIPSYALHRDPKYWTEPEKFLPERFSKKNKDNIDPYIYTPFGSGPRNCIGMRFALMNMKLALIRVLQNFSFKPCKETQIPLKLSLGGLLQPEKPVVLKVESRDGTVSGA
# Chain of CYP2C8 (P10632 whole entry): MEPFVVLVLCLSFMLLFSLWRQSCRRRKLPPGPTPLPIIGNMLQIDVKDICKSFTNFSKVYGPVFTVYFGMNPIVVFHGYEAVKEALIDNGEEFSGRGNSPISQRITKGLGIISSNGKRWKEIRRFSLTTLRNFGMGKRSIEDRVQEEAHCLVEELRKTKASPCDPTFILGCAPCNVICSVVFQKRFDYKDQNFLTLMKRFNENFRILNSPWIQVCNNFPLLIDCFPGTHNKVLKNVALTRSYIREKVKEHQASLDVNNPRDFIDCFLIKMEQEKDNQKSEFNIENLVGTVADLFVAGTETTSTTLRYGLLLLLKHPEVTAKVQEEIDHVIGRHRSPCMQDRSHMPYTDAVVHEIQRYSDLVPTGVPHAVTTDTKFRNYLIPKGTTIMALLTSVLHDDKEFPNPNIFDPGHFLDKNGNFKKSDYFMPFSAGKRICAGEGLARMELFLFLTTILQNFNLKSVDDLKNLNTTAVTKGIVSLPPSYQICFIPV
compound,measurement,setting,value
CCOC/C=C/c1ccc(-c2nc(-c3ccc(NC(C)C)cc3)c(-c3ccc(NC(C)C)cc3)[nH]2)cc1 [Formula 2 compound],Resistance to paclitaxel treatment in vitro,MDA/LCC6^MDR1; FIG. 1,reversed
same,EC50,MDA/LCC6^MDR1; [7],13 nM
same,EC50,MDA/LCC6^MDR1; [8],9 nM
same,EC50,HCT-15,1.6 nM
same,EC50,MES-SA/DX5; [7],24 ± 6 nM
same,EC50,MES-SA/DX5; [8],27 ± 7 nM
same,EC50,MES-SA/DX5; [9],34 ± 7 nM
same,EC50,CEM/VLB1000; [7],90 ± 60 nM
same,EC50,CEM/VLB1000; [9],70 ± 10 nM
same,EC50,SK/VLB1000 [1]; [8],33 nM
same,EC50,SK/VLB1000 [1]; [9],15 nM
same,EC50,"SK/VLB1000 [1]; ± SD, read-out: Formula 2 compound EC50, reversal of Doxorubicin resistance",25 ± 8 nM
same,EC50,MCF-7/ADR [2]; [7],38 ± 6 nM
same,EC50,MCF-7/ADR [2]; [8],31 ± 4 nM
same,EC50,MCF-7/ADR [2]; [9],20 ± 10 nM
same,Metabolism by P450 CYP2C8,CYP2C8,not metabolized
same,Effect on i.v. plasma paclitaxel levels,[3],no effect
same,IC50,"[4]; read-out: Cytostatic IC50, average value",60 µM
same,IC50,"[4]; read-out: Cytostatic IC50s, range over cell lines",6 to 170 µM
same,Cytotoxicity by itself,"[4]; at doses up to 100 μM, all cell lines",non-cytotoxic
same,IC50,CCD-986SK,> 100 µM
same,IC50,SW480,> 100 µM
same,IC50,SK/VLB1000 [5],15 µM
same,IC50,SKOV3,48 µM
same,IC50,CEM,38 µM
same,IC50,MCF-7/ADR [6],68 µM
same,Metabolism by P450 CYP3A4,P450 CYP3A4,not metabolized

# Reference: patent US20070203215A1, “Methods & Compositions For Enhancing Pharmaceutical Treatments” (Taiji Biomedical, Inc., priority 1999, published 2007)
